Results taken from US20250230165A1, “HETEROCYCLIC COMPOUNDS FOR USE IN THE TREATMENT OF CANCER” (ARTIOS PHARMA LIMITED, priority 2021, published 2025).

Target: T1, Human Polθ polymerase domain (aa1820-2590) (Homo sapiens, UniProt O75417)
T1 construct: Human Polθ polymerase domain (aa1820-2590) was expressed in E. coli; made in house; host or cells: E. coli
T1 sequence (O75417 1820-2590): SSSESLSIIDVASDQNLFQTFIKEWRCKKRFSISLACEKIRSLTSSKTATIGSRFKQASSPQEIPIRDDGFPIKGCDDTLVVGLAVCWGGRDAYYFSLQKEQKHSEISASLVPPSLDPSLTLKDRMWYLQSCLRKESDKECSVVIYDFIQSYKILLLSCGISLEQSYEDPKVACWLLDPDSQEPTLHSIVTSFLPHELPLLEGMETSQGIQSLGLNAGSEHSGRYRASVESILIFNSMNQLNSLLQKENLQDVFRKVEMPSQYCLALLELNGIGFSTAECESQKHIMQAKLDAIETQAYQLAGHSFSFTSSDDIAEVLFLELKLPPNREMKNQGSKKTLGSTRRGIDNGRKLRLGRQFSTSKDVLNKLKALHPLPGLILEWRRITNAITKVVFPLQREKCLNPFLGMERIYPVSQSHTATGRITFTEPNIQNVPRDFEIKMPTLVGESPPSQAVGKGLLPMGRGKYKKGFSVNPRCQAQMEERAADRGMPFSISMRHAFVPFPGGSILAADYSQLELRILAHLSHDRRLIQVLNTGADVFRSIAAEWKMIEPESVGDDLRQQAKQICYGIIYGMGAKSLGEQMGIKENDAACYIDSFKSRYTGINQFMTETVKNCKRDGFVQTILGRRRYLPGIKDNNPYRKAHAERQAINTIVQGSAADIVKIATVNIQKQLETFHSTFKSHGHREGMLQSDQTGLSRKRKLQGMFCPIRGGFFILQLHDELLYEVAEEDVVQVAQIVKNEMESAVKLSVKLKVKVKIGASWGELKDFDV
Experiment: Polθ Polymerase Domain Kinact/KI Assay (PicoGreen)
Format: biochemical
Settings: 0.8 nM Polθ, 100 nM DNA substrate, kobs vs [I] fit for 2-step covalent inhibitor
Outline: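 Covalent inhibitors were tested against E. coli-expressed enzyme (0.8 nM final) with 100 nM annealed DNA substrate and […] in Tris pH 7.5 buffer, 1% DMSO. Reactions were EDTA-quenched over a 0–60 min time course and product DNA detected by PicoGreen fluorescence.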

Kinact/Kl [M⁻¹ s⁻¹]	Structure (SMILES)
1.09e+06	C=CC(=O)N1CC(N(C)CC(O)CN2C[C@H]3CC(=O)N(c4cc(C(F)(F)F)cc(C)n4)[C@@H]3C(=O)N(C)c3cccc(Cl)c32)C1 (single isomer, unassigned) [Example 69]
1.89e+06	C=CC(=O)N1CC2(CN(CCN3C[C@H]4CC(=O)N(c5cc(C(F)(F)F)cc(C)n5)[C@@H]4C(=O)N(C)c4cccc(Cl)c43)CC2C#N)C1 (single isomer, unassigned) [Example 117a]
200000	C=CC(=O)N1CCCC1c1ccc(CN2C[C@H]3CC(=O)N(c4cc(C(F)(F)F)cc(C)n4)[C@@H]3C(=O)N(C)c3cccc(F)c32)cc1 (single isomer, unassigned) [Example 141a]
1.75e+06	C=CC(=O)N1CCn2cc(CN3C[C@H]4CC(=O)N(c5cc(C(F)(F)F)cc(C)n5)[C@@H]4C(=O)N(C)c4cccc(Cl)c43)nc2C1C (single isomer, unassigned) [Example 142a]
1e+06	C=CC(=O)N1Cc2nc(CN3C[C@H]4CC(=O)N(c5cc(C(F)(F)F)cc(C)n5)[C@@H]4C(=O)N(C)c4cccc(Cl)c43)cn2CC1C (single isomer, unassigned) [Example 143a]
1.06e+06	C=CC(=O)N1Cc2nc(CN3C[C@H]4CC(=O)N(c5cc(C(F)(F)F)cc(C)n5)[C@@H]4C(=O)Nc4cccc(Cl)c43)cn2CC1C (single isomer, unassigned) [Example 144a]
4.36e+06	C=CC(=O)N1Cc2nc(CN3C[C@H]4CC(=O)N(c5cc(C(F)(F)F)cc(C)n5)[C@@H]4C(=O)N(C)c4cccc(C)c43)cn2CC1C (single isomer, unassigned) [Example 206a]
870000	C=CC(=O)N1CC(N2CC[C@H](CN3C[C@H]4CC(=O)N(c5cc(C(F)(F)F)cc(C)n5)[C@@H]4C(=O)N(C)c4cccc(Cl)c43)[C@@H](C#N)C2)C1 (single isomer, unassigned) [Example 226b]
230000	C=CC(=O)N1CC(N2CC[C@H](CN3C[C@H]4CC(=O)N(c5cc(C(F)(F)F)cc(C)n5)[C@@H]4C(=O)N(C)c4cccc(Cl)c43)[C@H](C#N)C2)C1 (single isomer, unassigned) [Example 227a]
1.07e+06	C=CC(=O)N1CC(N2CC[C@@H](CN3C[C@H]4CC(=O)N(c5cc(C(F)(F)F)cc(C)n5)[C@@H]4C(=O)N(C)c4cccc(Cl)c43)[C@@H](C#N)C2)C1 (single isomer, unassigned) [Example 227b]
1.01e+06	C=CC(=O)N1Cc2cc(CN3C[C@H]4CC(=O)N(c5cc(C(F)(F)F)cc(C)n5)[C@@H]4C(=O)N(C)c4cccc(Cl)c43)cnc2C1CO (single isomer, unassigned) [Example 230]
1.89e+06	C=CC(=O)N1Cc2cc(CN3C[C@H]4CC(=O)N(c5cc(C(F)(F)F)cc(C)n5)[C@@H]4C(=O)N(C)c4cccc(C)c43)cnc2C1CO (single isomer, unassigned) [Example 232]
270000	C=CC(=O)N1Cc2cc(CN3C[C@H]4CC(=O)N(c5cc(C(F)(F)F)cc(C)n5)[C@@H]4C(=O)N(C)c4cccc(C)c43)cnc2C1COC (single isomer, unassigned) [Example 235]
270000	C=CC(=O)N1Cc2cc(CN3C[C@H]4CC(=O)N(c5cc(C(F)(F)F)cc(C)n5)[C@@H]4C(=O)N(C)c4cccc(Cl)c43)cnc2C1COC (single isomer, unassigned) [Example 237]
1.19e+06	C=CC(=O)N1Cc2cc(CN3C[C@H]4CC(=O)N(c5cc(C(F)(F)F)cc(C)n5)[C@@H]4C(=O)N(C)c4cccc(Cl)c43)ccc2C1CC#N (single isomer, unassigned) [Example 287b]
630000	C=CC(=O)N1Cc2ccc(CN3C[C@H]4CC(=O)N(c5cc(C(F)(F)F)cc(C)n5)[C@@H]4C(=O)N(C)c4cccc(Cl)c43)cc2C1CC#N (single isomer, unassigned) [Example 288a]

Further lines, the compound ahead of its results:

Structure (SMILES)	Kinact/Kl [M⁻¹ s⁻¹]
C=CC(=O)N1CC(N2CCO[C@H]3CN(CCN4C[C@H]5CC(=O)N(c6cc(C(F)(F)F)cc(C)n6)[C@@H]5C(=O)N(C)c5cccc(F)c54)C[C@@H]32)C1 (single isomer, unassigned) [Example 22a]	170000
C=CC(=O)N1CC(N2CCO[C@@H]3CN(CCN4C[C@H]5CC(=O)N(c6cc(C(F)(F)F)cc(C)n6)[C@@H]5C(=O)N(C)c5cccc(F)c54)C[C@H]32)C1 (single isomer, unassigned) [Example 22b]	460000
C=CC(=O)N1CCN2CCN(CCN3C[C@H]4CC(=O)N(c5cc(C(F)(F)F)cc(C)n5)[C@@H]4C(=O)N(C)c4cccc(F)c43)CC2C1 (single isomer, unassigned) [Example 23b]	540000
C=CC(=O)N1CC2(CN(CCN3C[C@H]4CC(=O)N(c5cc(C(F)(F)F)cc(C)n5)[C@@H]4C(=O)N(C)c4cccc(F)c43)CC3COCCN32)C1 (single isomer, unassigned) [Example 24a]	1.63e+06
C=CC(=O)N1C[C@H]2CN(CCN3C[C@H]4CC(=O)N(c5cc(C(F)(F)F)cc(C)n5)[C@@H]4C(=O)N(C)c4cccc(F)c43)CC[C@H]2C1 (single isomer, unassigned) [Example 25b]	250000
C=CC(=O)N1CC2(CN(CCN3C[C@H]4CC(=O)N(c5cc(C(F)(F)F)cc(C)n5)[C@@H]4C(=O)N(C)c4cccc(Cl)c43)CC3COCCN32)C1 (single isomer, unassigned) [Example 26a]	690000
C=CC(=O)N1CC2(C1)NCCN(CCN1C[C@H]3CC(=O)N(c4cc(C(F)(F)F)cc(C)n4)[C@@H]3C(=O)N(C)c3cccc(F)c31)C2C (single isomer, unassigned) [Example 34b]	1.69e+06
C=CC(=O)N1C[C@H]2CN(CCN3C[C@H]4CC(=O)N(c5cc(C(F)(F)F)cc(C)n5)[C@@H]4C(=O)N(C)c4cccc(F)c43)CCN2C(=O)[C@H]1C (single isomer, unassigned) [Example 58]	500000
C=CC(=O)N1C[C@@H]2CN(CCN3C[C@H]4CC(=O)N(c5cc(C(F)(F)F)cc(C)n5)[C@@H]4C(=O)N(C)c4cccc(F)c43)CCN2C(=O)[C@@H]1C (single isomer, unassigned) [Example 59]	1.08e+06
C=CC(=O)N1C[C@@H]2CN(CCN3C[C@H]4CC(=O)N(c5cc(C(F)(F)F)cc(C)n5)[C@@H]4C(=O)N(C)c4cccc(F)c43)CCN2C(=O)[C@H]1C (single isomer, unassigned) [Example 60]	300000
C=CC(=O)N1C[C@H]2CN(CCN3C[C@H]4CC(=O)N(c5cc(C(F)(F)F)cc(C)n5)[C@@H]4C(=O)N(C)c4cccc(F)c43)CCN2C(=O)[C@@H]1C (single isomer, unassigned) [Example 61]	500000
C=CC(=O)N1CCN2C(=O)[C@H](C)N(CCN3C[C@H]4CC(=O)N(c5cc(C(F)(F)F)cc(C)n5)[C@@H]4C(=O)N(C)c4cccc(F)c43)C[C@@H]2C1 (single isomer, unassigned) [Example 108]	2.35e+06
C=CC(=O)N1CC2(CN(CCN3C[C@H]4CC(=O)N(c5cc(C(F)(F)F)cc(C)n5)[C@@H]4C(=O)N(C)c4cccc(C)c43)CC2C#N)C1 (single isomer, unassigned) [Example 118a]	3e+06
C=CC(=O)N1CC2(CN(CCN3C[C@H]4CC(=O)N(c5cc(C(F)(F)F)cc(C)n5)[C@@H]4C(=O)N(C)c4cccc(C)c43)CC2(C)C#N)C1 (single isomer, unassigned) [Example 119a]	4.57e+06
C=CC(=O)N1CCN2C[C@@H](CN3C[C@H]4CC(=O)N(c5cc(C(F)(F)F)cc(C)n5)[C@@H]4C(=O)N(C)c4cccc(F)c43)N(C)C[C@H]2C1 (single isomer, unassigned) [Example 140a]	22000
C=CC(=O)N1CCN2C[C@@H](CN3C[C@H]4CC(=O)N(c5cc(C(F)(F)F)cc(C)n5)[C@@H]4C(=O)N(C)c4cccc(F)c43)N(C)CC2C1 (single isomer, unassigned) [Example 140b]	230000
C=CC(=O)N1CC(N2CCCC(CN3C[C@H]4CC(=O)N(c5cc(C(F)(F)F)cc(C)n5)[C@@H]4C(=O)N(C)c4cccc(F)c43)C2)C1 (single isomer, unassigned) [Example 225a]	320000
C=CC(=O)N1CC(N2CC[C@@H](CN3C[C@H]4CC(=O)N(c5cc(C(F)(F)F)cc(C)n5)[C@@H]4C(=O)N(C)c4cccc(Cl)c43)[C@H](C#N)C2)C1 (single isomer, unassigned) [Example 226a]	230000
